pEC50: −log10 of the molar value. Entries after “also recorded” stand apart in the source; their conditions may differ.
Columns and labels:
[1] = test system: human bone marrow-derived CD34+ cells differentiated into multiple hematopoietic lineages; assay: MLTA, overall effects across hematopoietic lineages; assay type: cell-based; conditions: 0.2-2500 nM, 6 days, relative to vehicle control
Method: (§1) A custom optimized cytokine cocktail was developed using commercially available cytokines (Peprotech, New Jersey) to facilitate simultaneous multi-lineage differentiation and self-renewal of freeze-thawed primary human bone marrow-derived CD34+ cells in SFEM II media (cells and media from StemCell Technologies, Vancouver). Cultures were carried out in ultra-low attachment 96-well plates (Corning, New York) with test article added on day 0 and cultured at 37°C, 85% relative humidity, and 5% CO2 for six days before interrogating drug impact via 17-parameter flow cytometry.
(§2) The flow cytometry panel used to define hematopoietic subsets was composed of CD34-PECy7, CD90-PECY5, CD38-AF488, CD371-PE, CD45Ra-BV421, CD14-BV605, CD42b-AF647, CD10-PEDazzle594, CD235a-PerCPCy5.5 (BioLegend, California), CD15-BUV395, CD41a-APCH7, CD71-BV786 (BD Biosciences, California), and DAPI for dead cell exclusion (ThermoFisher, California). In short, Day 6 cells were harvested, FcR-blocked (FcR binding inhibitor, ThermoFisher), surface-stained, then analyzed in a buffer containing TruCount Control Beads using a BD LSR Fortessa SORP fitted with a high-throughput sampler (BD Biosciences, California). Data was analyzed in Diva 6.0.2 and exported to CSV where after all cell data was transformed to cell per mL then normalized on a per-donor basis to untreated control wells to determine drug impact.
(§3) Donor material was collected and cultured as described above. The number of replicate donor samples per drug ranged from 2–7 and varied per drug (S1 Table). Drug treatment was added at time 0 and cells were maintained in culture for 6 days. Concentrations tested for each drug compound are contained in S1 Table. Concentrations were selected to span a range that is clinically useful. Following treatment, cell populations were measured using flow cytometry. We extracted cell counts from flow cytometry data, normalized to bead counts, and corrected for well volume.
(§4) Each well was normalized to the average of six vehicle control wells. For drugs that were tested across multiple runs of the assay, vehicle-normalized donor data were pooled, and we used the average of these pooled data for further modeling. Normalized data used as model inputs are included in S1 Table.
We implemented drug effects using an Emax model for the drug’s effect on each cell type. The 13 maximum effect parameters (EmaxT,C) are unitless and can vary between 0 and 2 and where a subscript, C, represents one of the previously described 13 cell types. We adapted a traditional Emax model using the equations below. We interpreted EmaxT values less than or equal to one as anti-proliferative, and EmaxT values greater than one as indicating a cell-killing mechanism in addition to anti-proliferation. The relationships for these effects are included in the model using the following equations. Eq 2 describes the drug anti-proliferative effect in the net proliferation rate for a given cell type. Eq 3 describes the cell-killing EmaxCK effect.

[2] = test system: neutrophils (neutrophil-lin); assay: MLTA, Neut: concentration-response and QSP model fit; assay type: cell-based, human; conditions: Homo sapiens, Neutrophil, 144 h
Summary of the method: (§5)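 Drug was added at time 0 to thawed human bone marrow CD34+ cells in SFEM II plus a cytokine cocktail. After 6 days at 37°C, subsets were counted by surface-marker flow with TruCount beads. Vehicle-normalized, donor-pooled data then fed an Emax model separating anti-proliferative from cell-killing effects.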

[3] = test system: total dead cells (totalDeadCells); assay: MLTA, total dead cells concentration-response; assay type: cell-based; conditions: Homo sapiens, 144 h, 6 days, normalized to vehicle control, read-out: total_dead normalized cell count
Method: as §1, §2, §3, §4

[4] = test system: late erythroid cells (Eryth II); assay: MLTA, ErythII: concentration-response and QSP model fit; assay type: cell-based, human; conditions: Homo sapiens, 144 h
Summary of the method: as §5

[5] = test system: B cells (B-lin); assay: MLTA, B-lin: concentration-response and QSP model fit; assay type: cell-based, human; conditions: Homo sapiens, B-cell, 144 h
Summary of the method: as §5

[6] = test system: multi-potent progenitors (MPPs); assay: MLTA, MPPs: concentration-response and QSP model fit; assay type: cell-based, human; conditions: Homo sapiens, 144 h
Summary of the method: as §5

[7] = test system: granulocyte-macrophage progenitor (GMPs); assay: MLTA, GMPs: concentration-response and QSP model fit; assay type: cell-based, human; conditions: Homo sapiens, 144 h
Summary of the method: as §5

[8] = test system: granulocytes (Gran-lin); assay: MLTA, Gran: concentration-response and QSP model fit; assay type: cell-based, human; conditions: Homo sapiens, 144 h
Summary of the method: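 Freeze-thawed primary human bone marrow CD34+ cells were cultured 6 days in SFEM II with a cytokine cocktail, drug added on day 0. Subsets were counted by 17-parameter flow cytometry with TruCount beads and normalized to vehicle wells. An Emax QSP model (Emax 0–2, L1 regularization) was fitted to these counts.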

[9] = test system: MK cells (MK-lin); assay: MLTA, MK: concentration-response and QSP model fit; assay type: cell-based, human; conditions: Homo sapiens, 144 h
Summary of the method: as §5

[10] = QSP model fit of 6-day MLTA data

CS(=O)(=O)N1CCN(Cc2cc3nc(-c4cccc5[nH]ncc45)nc(N4CCOCC4)c3s2)CC1 [pictilisib]
effect on hematopoietic cell numbers across cell types [1]: moderate reduction of cells types; also recorded: decreased most cell types | pEC50 [2, 10]: 6.88 | activity at 0.0002 µM ([2]; dose 0.2 nM, 6 days, normalized to vehicle control, read-out: Neut normalized cell count): 92.7% | activity at 0.001 µM ([2]; dose 1 nM, 6 days, normalized to vehicle control, read-out: Neut normalized cell count): 82.6% | activity at 0.005 µM ([2]; dose 5 nM, 6 days, normalized to vehicle control, read-out: Neut normalized cell count): 64.5% | activity at 0.025 µM ([2]; dose 25 nM, 6 days, normalized to vehicle control, read-out: Neut normalized cell count): 59.8% | activity at 0.1 µM ([2]; dose 100 nM, 6 days, normalized to vehicle control, read-out: Neut normalized cell count): 30.4% | activity at 0.5 µM ([2]; dose 500 nM, 6 days, normalized to vehicle control, read-out: Neut normalized cell count): 6.17% | activity at 2.5 µM ([2]; dose 2500 nM, 6 days, normalized to vehicle control, read-out: Neut normalized cell count): 0.529% | Emax ([2]; parameter from QSP model fitting, read-out: Emax_drug_Neut): 16.5% | activity at 0.0002 µM ([3]; dose 0.2 nM): 105% | activity at 0.001 µM ([3]; dose 1 nM): 110% | activity at 0.005 µM ([3]; dose 5 nM): 91.5% | activity at 0.025 µM ([3]; dose 25 nM): 93.1% | activity at 0.1 µM ([3]; dose 100 nM): 55.3% | activity at 0.5 µM ([3]; dose 500 nM): 40.1% | activity at 2.5 µM ([3]; dose 2500 nM): 34.3% | pEC50 ([4]; QSP model fit of 6-day MLTA data, read-out: EC50ErythII): 6.72 | activity at 0.0002 µM ([4]; dose 0.2 nM, 6 days, normalized to vehicle control, read-out: ErythII normalized cell count): 94.6% | activity at 0.001 µM ([4]; dose 1 nM, 6 days, normalized to vehicle control, read-out: ErythII normalized cell count): 92% | activity at 0.005 µM ([4]; dose 5 nM, 6 days, normalized to vehicle control, read-out: ErythII normalized cell count): 90% | activity at 0.025 µM ([4]; dose 25 nM, 6 days, normalized to vehicle control, read-out: ErythII normalized cell count): 86.7% | activity at 0.1 µM ([4]; dose 100 nM, 6 days, normalized to vehicle control, read-out: ErythII normalized cell count): 55.5% | activity at 0.5 µM ([4]; dose 500 nM, 6 days, normalized to vehicle control, read-out: ErythII normalized cell count): 23.3% | activity at 2.5 µM ([4]; dose 2500 nM, 6 days, normalized to vehicle control, read-out: ErythII normalized cell count): 5.88% | Emax ([4]; parameter from QSP model fitting, read-out: Emax_drug_ErythroidII): 13.6% | pEC50 [5, 10]: 7.04 | activity at 0.0002 µM ([5]; dose 0.2 nM, 6 days, normalized to vehicle control, read-out: B-lin normalized cell count): 93.8% | activity at 0.001 µM ([5]; dose 1 nM, 6 days, normalized to vehicle control, read-out: B-lin normalized cell count): 107% | activity at 0.005 µM ([5]; dose 5 nM, 6 days, normalized to vehicle control, read-out: B-lin normalized cell count): 81.5% | activity at 0.025 µM ([5]; dose 25 nM, 6 days, normalized to vehicle control, read-out: B-lin normalized cell count): 65.5% | activity at 0.1 µM ([5]; dose 100 nM, 6 days, normalized to vehicle control, read-out: B-lin normalized cell count): 37.5% | activity at 0.5 µM ([5]; dose 500 nM, 6 days, normalized to vehicle control, read-out: B-lin normalized cell count): 16.2% | activity at 2.5 µM ([5]; dose 2500 nM, 6 days, normalized to vehicle control, read-out: B-lin normalized cell count): 6.19% | Emax ([5]; parameter from QSP model fitting, read-out: Emax_drug_B): 51.4% | activity at 0.0002 µM ([6]; dose 0.2 nM, 6 days, normalized to vehicle control, read-out: MPPs normalized cell count): 89.3% | activity at 0.001 µM ([6]; dose 1 nM, 6 days, normalized to vehicle control, read-out: MPPs normalized cell count): 82.2% | activity at 0.005 µM ([6]; dose 5 nM, 6 days, normalized to vehicle control, read-out: MPPs normalized cell count): 71.7% | activity at 0.025 µM ([6]; dose 25 nM, 6 days, normalized to vehicle control, read-out: MPPs normalized cell count): 67.2% | activity at 0.1 µM ([6]; dose 100 nM, 6 days, normalized to vehicle control, read-out: MPPs normalized cell count): 49.1% | activity at 0.5 µM ([6]; dose 500 nM, 6 days, normalized to vehicle control, read-out: MPPs normalized cell count): 38.2% | activity at 2.5 µM ([6]; dose 2500 nM, 6 days, normalized to vehicle control, read-out: MPPs normalized cell count): 28% | Emax ([6]; parameter from QSP model fitting, read-out: Emax_drug_MPP): 0.03% | pEC50 [7, 10]: 8.85 | activity at 0.0002 µM ([7]; dose 0.2 nM, 6 days, normalized to vehicle control, read-out: GMPs normalized cell count): 95.6% | activity at 0.001 µM ([7]; dose 1 nM, 6 days, normalized to vehicle control, read-out: GMPs normalized cell count): 97.9% | activity at 0.005 µM ([7]; dose 5 nM, 6 days, normalized to vehicle control, read-out: GMPs normalized cell count): 92.7% | activity at 0.025 µM ([7]; dose 25 nM, 6 days, normalized to vehicle control, read-out: GMPs normalized cell count): 75.4% | activity at 0.1 µM ([7]; dose 100 nM, 6 days, normalized to vehicle control, read-out: GMPs normalized cell count): 62.5% | activity at 0.5 µM ([7]; dose 500 nM, 6 days, normalized to vehicle control, read-out: GMPs normalized cell count): 39.5% | activity at 2.5 µM ([7]; dose 2500 nM, 6 days, normalized to vehicle control, read-out: GMPs normalized cell count): 22.5% | pEC50 [8, 10]: 9.78 | activity at 0.0002 µM ([8]; dose 0.2 nM, 6 days, normalized to vehicle control, read-out: Gran normalized cell count): 99.2% | activity at 0.001 µM ([8]; dose 1 nM, 6 days, normalized to vehicle control, read-out: Gran normalized cell count): 100% | activity at 0.005 µM ([8]; dose 5 nM, 6 days, normalized to vehicle control, read-out: Gran normalized cell count): 90.3% | activity at 0.025 µM ([8]; dose 25 nM, 6 days, normalized to vehicle control, read-out: Gran normalized cell count): 78.6% | activity at 0.1 µM ([8]; dose 100 nM, 6 days, normalized to vehicle control, read-out: Gran normalized cell count): 51.4% | activity at 0.5 µM ([8]; dose 500 nM, 6 days, normalized to vehicle control, read-out: Gran normalized cell count): 27.9% | activity at 2.5 µM ([8]; dose 2500 nM, 6 days, normalized to vehicle control, read-out: Gran normalized cell count): 9.84% | Emax ([8]; parameter from QSP model fitting, read-out: Emax_drug_Gran): 23.2% | pEC50 [9, 10]: 5.97 | activity at 0.0002 µM ([9]; dose 0.2 nM, 6 days, normalized to vehicle control, read-out: MK normalized cell count): 100% | activity at 0.001 µM ([9]; dose 1 nM, 6 days, normalized to vehicle control, read-out: MK normalized cell count): 107% | activity at 0.005 µM ([9]; dose 5 nM, 6 days, normalized to vehicle control, read-out: MK normalized cell count): 113% | activity at 0.025 µM ([9]; dose 25 nM, 6 days, normalized to vehicle control, read-out: MK normalized cell count): 85.6% | activity at 0.1 µM ([9]; dose 100 nM, 6 days, normalized to vehicle control, read-out: MK normalized cell count): 78.4% | activity at 0.5 µM ([9]; dose 500 nM, 6 days, normalized to vehicle control, read-out: MK normalized cell count): 49.7% | activity at 2.5 µM ([9]; dose 2500 nM, 6 days, normalized to vehicle control, read-out: MK normalized cell count): 16.8% | Emax ([9]; parameter from QSP model fitting, read-out: Emax_drug_MK): 12.3%

Reference: PMC7402526, “An in vitro quantitative systems pharmacology approach for deconvolving mechanisms of drug-induced, multilineage cytopenias” (PLoS Computational Biology, 2020)
